In assay [1] the target is hERG (Homo sapiens, UniProt Q12809). The assay is described as follows: hERG inhibition. An excerpt:
It is well known that blockade of the cardiac ion channel coded by human ether-n-gogo-related gene (hERG) is a risk factor in drug discovery and development. Blockage of hERG can cause safety problems such as cardiac arrhythmia. Advantageously, the compounds of Formula I have low hERG activity.
In general terms: The hERG channel carries a current that helps repolarise heart muscle cells.

Assay [2] has as its system DLD1 cells. Kind of assay: PARP proliferation assay (7 day compound dosing), WT DLD1. The format is cell-based. Conditions: Homo sapiens, 168 h; WT DLD-1 cells, 7 day dosing; read-out: WT DLD-1 prolif. 7 d IC50. The method, then: (§1) PARP Proliferation Assay (7 Day Compound Dosing)
(§2) DLD1 and BRCA2 (−/−) DLD1 cells were harvested to a density of 5000 cells/ml and 2.5E4 cells/ml respectively in complete media, 40 μL/well seeded into 384-well plates (Greiner, Kremsmunster, Austria; 781090) using a Multidrop Combi then incubated at 37° C., 5% CO2 overnight. Next day (Day 1) using a Multidrop Combi add sytoxgreen (5 ul, 2 uM) and saponin (10 ul, 0.25% stock) to a day 0 plate, seal the plate using a black adhesive lid and incubate for >3 h at rt. Cells were imaged using Cell Insight (Thermo Fisher) fitted with a 4× objective. Test compounds are added using an Echo 555 and placed in incubator maintained at 37° C., 5% CO2 and incubated for 7 days. On Day 8 add sytox green (5 ul, 2 uM) and then saponin (10 ul, 0.25% stock) to plates, seal the plate using a black adhesive lid and incubate for >3 h at rt. Read all cells on the Cell Insight with 4× Objective. The rate of proliferation is determined in Genedata by assessing the total cell number output from the Cell Insight for Day 0 and Day 8 plates.

In assay [3] the test system is BRCA2 (−/−) DLD1 cells. The assay is described as follows: PARP proliferation assay (7 day compound dosing), BRCA2 (−/−) DLD1. In kind it is cell-based. Conditions: Homo sapiens, DLD-1, 168 h, BRCA2 −/− DLD-1 cells, 7 day dosing; read-out: BRCA2 −/− DLD-1 prolif. 7 d IC50. How it is done: as §1, §2
The target of assay [4] is PARP5a (Homo sapiens, UniProt O95271). Kind of assay: PARP fluorescence anisotropy binding assay, PARP5a binding domain. Conditions: recombinant PARP5a binding domain. An excerpt:
(§3) PARP Fluorescence Anisotropy Binding Assays
(In general: In fluorescence polarisation assays a small probe gives low polarisation when free and higher when bound to something large.)

The target of assay [5] is T1, PARP2 (Homo sapiens, UniProt Q9UGN5).
T1 construct: Recombinant full length PARP2 protein
The assay is described as follows: PARP fluorescence anisotropy binding assay, PARP2. Conditions: recombinant full length PARP2. How it is done:
as §3
Recombinant full length PARP2 protein was diluted to 6 nM with 50 mM Tris pH 8, 0.001% Triton X100, 10 mM MgCl2, 150 mM NaCl and incubated for four hours with an equivalent volume of 2 nM fluorescent probe diluted with 50 mM Tris pH 8, 0.001% Triton X100, 10 mM MgCl2, 150 mM NaCl. The final DMSO concentration of the probe was kept below 1% (v/v).
Fluorescence anisotropy of the probe when bound to the proteins was measured using a BMG Pherastar FSX© in the presence of test compounds or solvent control and the effect on anisotropy determined. % inhibition values for different test compound concentrations were calculated and fitted to a four parameter logistic plot in order to determine the IC50 value.

For assay [6], the target named is T2, PARP3 (Homo sapiens, UniProt Q9Y6F1).
T2 construct: Recombinant full length PARP3 protein
T2 sequence (Q9Y6F1 1-533): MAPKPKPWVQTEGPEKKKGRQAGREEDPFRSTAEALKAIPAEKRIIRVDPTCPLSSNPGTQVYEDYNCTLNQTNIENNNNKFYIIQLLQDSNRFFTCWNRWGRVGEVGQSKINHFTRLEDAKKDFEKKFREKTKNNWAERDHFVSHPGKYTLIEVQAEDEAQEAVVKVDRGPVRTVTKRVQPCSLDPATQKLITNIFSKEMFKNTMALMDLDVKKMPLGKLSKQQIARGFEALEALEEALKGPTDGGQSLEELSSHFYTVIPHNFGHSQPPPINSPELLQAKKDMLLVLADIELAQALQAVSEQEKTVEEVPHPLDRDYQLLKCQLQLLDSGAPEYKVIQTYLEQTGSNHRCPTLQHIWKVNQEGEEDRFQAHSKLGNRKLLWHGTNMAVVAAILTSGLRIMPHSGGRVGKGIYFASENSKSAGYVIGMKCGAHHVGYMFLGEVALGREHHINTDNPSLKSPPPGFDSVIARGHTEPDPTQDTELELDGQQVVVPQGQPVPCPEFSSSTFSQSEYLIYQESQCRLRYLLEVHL
Kind of assay: PARP fluorescence anisotropy binding assay, PARP3. The conditions noted are these: recombinant full length PARP3.
Description: as §3

Assay [7] deals with T3, PARP6 (Homo sapiens, UniProt Q2NL67).
T3 construct: Recombinant full length GST tagged PARP6 protein; GST
Kind of assay: PARP fluorescence anisotropy binding assay, PARP6. Conditions: recombinant full length GST tagged PARP6. The method, then: as §3
Recombinant full length GST tagged PARP6 protein was diluted to 160 nM with 50 mM Tris pH 8, 0.001% Triton X100, 10 mM MgCl2, 150 mM NaCl and incubated for four hours with an equivalent volume of 6 nM fluorescent probe diluted with 50 mM Tris pH 8, 0.001% Triton X100, 10 mM MgCl2, 150 mM NaCl. The final DMSO concentration of the probe was kept below 1% (v/v).
Fluorescence anisotropy of the probe when bound to the proteins was measured using a BMG Pherastar FSX© in the presence of test compounds or solvent control and the effect on anisotropy determined. % inhibition values for different test compound concentrations were calculated and fitted to a four parameter logistic plot in order to determine the IC50 value. Where necessary, the compound Ki can be determined from the IC50 value using a Munson Rodbard equation defined in Anal Biochem. 1980 Sep. 1; 107(1):220-39 and is based on the known KD of the probe binding to the relevant PARP protein

T1 sequence (Q9UGN5 whole entry): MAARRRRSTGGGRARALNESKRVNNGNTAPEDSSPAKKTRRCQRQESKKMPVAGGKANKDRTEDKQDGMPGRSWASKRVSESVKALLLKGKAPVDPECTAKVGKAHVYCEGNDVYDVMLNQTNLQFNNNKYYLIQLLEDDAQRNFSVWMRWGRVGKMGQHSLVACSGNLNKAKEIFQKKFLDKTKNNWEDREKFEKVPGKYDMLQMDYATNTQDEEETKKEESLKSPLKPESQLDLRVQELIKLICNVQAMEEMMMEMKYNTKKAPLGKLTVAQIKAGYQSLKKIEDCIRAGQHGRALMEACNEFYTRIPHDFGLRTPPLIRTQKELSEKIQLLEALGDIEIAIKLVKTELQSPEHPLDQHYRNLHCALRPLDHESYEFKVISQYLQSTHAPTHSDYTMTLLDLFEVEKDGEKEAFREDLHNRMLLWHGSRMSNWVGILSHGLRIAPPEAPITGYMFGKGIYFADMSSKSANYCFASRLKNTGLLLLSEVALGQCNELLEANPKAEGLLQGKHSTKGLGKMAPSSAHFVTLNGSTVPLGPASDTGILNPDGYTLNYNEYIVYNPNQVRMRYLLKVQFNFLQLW
Chain of PARP5a (O95271 1112-1317): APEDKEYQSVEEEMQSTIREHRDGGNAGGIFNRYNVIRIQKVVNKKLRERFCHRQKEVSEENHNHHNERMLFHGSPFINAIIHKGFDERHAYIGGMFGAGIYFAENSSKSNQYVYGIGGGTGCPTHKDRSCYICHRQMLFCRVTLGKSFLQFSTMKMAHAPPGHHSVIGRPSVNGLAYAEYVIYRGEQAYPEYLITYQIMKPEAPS
T3 sequence (Q2NL67 whole entry): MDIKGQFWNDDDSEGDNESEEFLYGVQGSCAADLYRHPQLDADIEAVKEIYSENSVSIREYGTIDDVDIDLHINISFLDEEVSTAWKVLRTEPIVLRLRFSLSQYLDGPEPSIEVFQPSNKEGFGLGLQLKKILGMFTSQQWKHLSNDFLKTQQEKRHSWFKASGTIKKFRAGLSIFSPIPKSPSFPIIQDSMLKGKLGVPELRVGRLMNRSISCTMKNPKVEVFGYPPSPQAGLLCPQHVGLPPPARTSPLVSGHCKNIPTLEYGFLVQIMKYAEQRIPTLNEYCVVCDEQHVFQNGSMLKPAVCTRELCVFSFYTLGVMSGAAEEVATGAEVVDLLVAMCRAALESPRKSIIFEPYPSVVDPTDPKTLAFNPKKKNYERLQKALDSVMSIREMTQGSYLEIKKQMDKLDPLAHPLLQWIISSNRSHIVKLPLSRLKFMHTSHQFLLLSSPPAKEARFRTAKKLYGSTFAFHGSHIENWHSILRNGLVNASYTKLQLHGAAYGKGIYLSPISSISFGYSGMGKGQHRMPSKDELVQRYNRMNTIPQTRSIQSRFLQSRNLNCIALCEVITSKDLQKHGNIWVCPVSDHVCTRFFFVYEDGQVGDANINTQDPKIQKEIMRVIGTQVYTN
Chain of hERG (Q12809 whole entry): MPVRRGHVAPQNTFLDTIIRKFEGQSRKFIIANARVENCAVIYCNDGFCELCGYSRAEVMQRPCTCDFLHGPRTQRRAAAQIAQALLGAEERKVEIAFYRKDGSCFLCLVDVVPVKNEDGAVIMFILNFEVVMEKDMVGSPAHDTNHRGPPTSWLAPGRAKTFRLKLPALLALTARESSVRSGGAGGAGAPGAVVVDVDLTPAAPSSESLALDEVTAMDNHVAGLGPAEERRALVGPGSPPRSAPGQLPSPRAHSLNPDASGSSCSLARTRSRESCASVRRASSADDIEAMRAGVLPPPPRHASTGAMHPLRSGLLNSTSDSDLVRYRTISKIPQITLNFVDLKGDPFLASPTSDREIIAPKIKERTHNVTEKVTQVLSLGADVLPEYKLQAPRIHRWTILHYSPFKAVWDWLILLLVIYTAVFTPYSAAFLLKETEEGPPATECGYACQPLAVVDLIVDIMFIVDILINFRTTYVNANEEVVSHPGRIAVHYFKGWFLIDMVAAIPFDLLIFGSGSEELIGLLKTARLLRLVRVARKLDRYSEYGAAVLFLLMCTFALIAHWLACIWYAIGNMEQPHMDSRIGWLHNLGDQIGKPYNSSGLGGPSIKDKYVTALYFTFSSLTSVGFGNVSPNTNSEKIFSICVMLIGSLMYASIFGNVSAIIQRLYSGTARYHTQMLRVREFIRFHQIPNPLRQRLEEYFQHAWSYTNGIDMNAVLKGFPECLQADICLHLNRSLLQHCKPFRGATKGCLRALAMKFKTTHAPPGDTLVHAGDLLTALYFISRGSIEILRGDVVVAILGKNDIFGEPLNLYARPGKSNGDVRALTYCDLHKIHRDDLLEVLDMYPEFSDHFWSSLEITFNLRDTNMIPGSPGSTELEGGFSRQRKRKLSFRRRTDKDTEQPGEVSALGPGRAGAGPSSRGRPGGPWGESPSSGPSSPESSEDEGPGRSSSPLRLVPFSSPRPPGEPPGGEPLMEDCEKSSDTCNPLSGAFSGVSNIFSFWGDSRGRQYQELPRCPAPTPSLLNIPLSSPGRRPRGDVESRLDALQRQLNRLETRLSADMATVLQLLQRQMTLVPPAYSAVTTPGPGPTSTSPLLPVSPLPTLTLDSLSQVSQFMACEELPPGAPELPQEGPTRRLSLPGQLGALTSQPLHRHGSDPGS

As for `CNC(=O)c1ccc(N2CCN(Cc3ccc4nc(C)c(=O)[nH]c4c3C)CC2)c(C)n1` [Example 4, 5-[4-[(2,5-dimethyl-3-oxo-4H-quinoxalin-6-yl)methyl]piperazin-1-yl]-N,6-dimethyl-pyridine-2-carboxamide], the values for the IC50 in assay [1], in assay [2] and in assay [3] were more than 40 µM, more than 14 µM and 0.081 µM, respectively.

In the case of `CCc1nc2ccc(CN3CCN(c4ccc(C(=O)NC)nc4Cl)CC3)c(Cl)c2[nH]c1=O` [Example 8, 6-chloro-5-[4-[(5-chloro-2-ethyl-3-oxo-4H-quinoxalin-6-yl)methyl]piperazin-1-yl]-N-methyl-pyridine-2-carboxamide], the IC50 in assay [4] was more than 100 µM; in assay [5], more than 66 µM; in assay [1], more than 40 µM; in assay [2], more than 7.9 µM; in assay [6], more than 100 µM; in assay [3] it was 0.012 µM. The IC50 in assay [7] was more than 100 µM.

In the case of `CCc1nc2ccc(CN3CCN(c4ccc(C(=O)NC)nc4F)CC3)c(Cl)c2[nH]c1=O` [Example 9, 5-[4-[(5-chloro-2-ethyl-3-oxo-4H-quinoxalin-6-yl)methyl]piperazin-1-yl]-6-fluoro-N-methyl-pyridine-2-carboxamide], the IC50 in assay [4] is more than 100 µM; in assay [5], more than 100 µM; in assay [1] it was more than 40 µM; in assay [2], more than 10 µM; in assay [6] it was more than 100 µM; in assay [3] it was 0.01 µM. Moreover, the IC50 in assay [7] is more than 100 µM.

With `CCc1nc2ccc(CN3CCN(c4ccc(C(=O)NC)nc4)CC3)c(Cl)c2[nH]c1=O` [Example 10, 5-[4-[(5-chloro-2-ethyl-3-oxo-4H-quinoxalin-6-yl)methyl]piperazin-1-yl]-N-methyl-pyridine-2-carboxamide], the IC50 in assay [4] was more than 100 µM; in assay [5] it was more than 100 µM; in assay [1], more than 40 µM; in assay [2], more than 30 µM; in assay [6], more than 100 µM; in assay [3], more than 30 µM. Moreover, in assay [7], the IC50 was more than 100 µM.

As for `CCc1nc2ccc(CN3CCN(c4ccc(C(=O)NC)nc4C)CC3)c(Cl)c2[nH]c1=O` [Example 11, 5-[4-[(5-chloro-2-ethyl-3-oxo-4H-quinoxalin-6-yl)methyl]piperazin-1-yl]-N,6-dimethyl-pyridine-2-carboxamide], the IC50 in assay [4] was more than 100 µM; in assay [5] it was more than 100 µM; in assay [1] it was more than 40 µM; in assay [2], more than 30 µM; in assay [6], more than 100 µM; in assay [3] it was 0.009 µM. Further, the IC50 in assay [7] is more than 100 µM.

Take `CNC(=O)c1ccc(N2CCN(Cc3ccc4nc(C)c(=O)[nH]c4c3Cl)CC2)c(C)n1` [Example 18, 5-[4-[(5-chloro-2-methyl-3-oxo-4H-quinoxalin-6-yl)methyl]piperazin-1-yl]-N,6-dimethyl-pyridine-2-carboxamide]: the IC50 in assay [4] was more than 100 µM; in assay [5], more than 100 µM; in assay [2] it was 21 µM; in assay [6] it was more than 100 µM; in assay [3], 4.33 µM; in assay [7] it was more than 100 µM.

For `CNC(=O)c1ccc(N2CCN(Cc3ccc4nc(C)c(=O)[nH]c4c3F)CC2)c(F)n1` [Example 20, 6-fluoro-5-[4-[(5-fluoro-2-methyl-3-oxo-4H-quinoxalin-6-yl)methyl]piperazin-1-yl]-N-methyl-pyridine-2-carboxamide], the IC50 in assay [4] was more than 100 µM; in assay [1], more than 40 µM; in assay [6], more than 100 µM; in assay [7], more than 100 µM.

As for `CCc1nc2ccc(CN3CCN(c4ccc(C(=O)NC)nc4C)CC3)c(F)c2[nH]c1=O` [Example 23, 5-[4-[(2-ethyl-5-fluoro-3-oxo-4H-quinoxalin-6-yl)methyl]piperazin-1-yl]-N,6-dimethyl-pyridine-2-carboxamide], the IC50 is more than 40 µM in assay [1], more than 30 µM in assay [2] and 0.003 µM in assay [3].

Consider `CCc1nc2ccc(CN3CCN(c4ccc(C(=O)NC)nc4C(F)F)CC3)c(F)c2[nH]c1=O` [Example 24, 6-(difluoromethyl)-5-[4-[(2-ethyl-5-fluoro-3-oxo-4H-quinoxalin-6-yl)methyl]piperazin-1-yl]-N-methyl-pyridine-2-carboxamide], for which the values for the IC50 in assay [1], in assay [2] and in assay [3] were more than 36 µM, more than 30 µM and 0.003 µM, respectively.

Take `CCc1nc2ccc(CN3CCN(c4ccc(C(=O)NC)nc4F)CC3)c(F)c2[nH]c1=O` [Example 27, 5-[4-[(2-ethyl-5-fluoro-3-oxo-4H-quinoxalin-6-yl)methyl]piperazin-1-yl]-6-fluoro-N-methyl-pyridine-2-carboxamide]: the IC50 in assay [1] was more than 40 µM; in assay [2], 6.3 µM; in assay [3], 0.006 µM.

For `CCc1nc2ccc(CN3CCN(c4ccc(C(=O)NC)nc4)CC3)c(F)c2[nH]c1=O` [Example 29, 5-[4-[(2-ethyl-5-fluoro-3-oxo-4H-quinoxalin-6-yl)methyl]piperazin-1-yl]-N-methyl-pyridine-2-carboxamide], the IC50 was more than 40 µM in assay [1], more than 10 µM in assay [2] and 0.005 µM in assay [3].

`CNC(=O)c1ccc(N2CCN(Cc3ccc4nc(C)c(=O)[nH]c4c3F)CC2)c(Cl)n1` [Example 30, 6-chloro-5-[4-[(5-fluoro-2-methyl-3-oxo-4H-quinoxalin-6-yl)methyl]piperazin-1-yl]-N-methyl-pyridine-2-carboxamide]: the IC50 in assay [1] was more than 40 µM; in assay [2], more than 30 µM; in assay [3], 0.003 µM.

Consider `CNC(=O)c1ccc(N2CCN(Cc3ccc4nc(C)c(=O)[nH]c4c3F)CC2)cn1` [Example 32, 5-[4-[(5-fluoro-2-methyl-3-oxo-4H-quinoxalin-6-yl)methyl]piperazin-1-yl]-N-methyl-pyridine-2-carboxamide], for which the IC50 was more than 40 µM in assay [1], 23 µM in assay [2] and 1.08 µM in assay [3].

Take `CNC(=O)c1ccc(N2CCN(Cc3ccc4nc(C(F)(F)F)c(=O)[nH]c4c3F)CC2)c(F)n1` [Example 48, 6-fluoro-5-[4-[[5-fluoro-3-oxo-2-(trifluoromethyl)-4H-quinoxalin-6-yl]methyl]piperazin-1-yl]-N-methyl-pyridine-2-carboxamide]: the IC50 in assay [1] was more than 40 µM; in assay [2], 27 µM; in assay [3] it was 0.018 µM.

The values above are taken from US12421208B2, “Chemical compounds” (ASTRAZENECA AB, priority 2020, dated 2025).
